The values that follow are results of earlier work, collected in patent US20030099725A1, “Herbal compositions useful as chemopreventive and therapeutic agents and methods of manufacturing same” (priority 2001, published 2003).

The structures appear in SMILES notation.

The subject of the series is women at high risk of breast cancer.

With `CC/C(=C(\c1ccccc1)c1ccc(OCCN(C)C)cc1)c1ccccc1` [Tamoxifen], the “decrease in invasive cancer versus placebo” value was 49% and the “decrease in non-invasive breast cancer versus placebo” value is 50%.
